{"source": "paper PMC10023787", "about": "“Trio-pharmacophore DNA-encoded chemical library for simultaneous selection of fragments and linkers” (Nature Communications, 2023)", "type_in_all_cases": "biochemical", "key": {"bovine trypsin": {"target": "T1, bovine trypsin (Bos taurus, UniProt P00760)", "T1 construct": "purchased Sigma-Aldrich T8003", "T1 sequence (P00760 24-246)": "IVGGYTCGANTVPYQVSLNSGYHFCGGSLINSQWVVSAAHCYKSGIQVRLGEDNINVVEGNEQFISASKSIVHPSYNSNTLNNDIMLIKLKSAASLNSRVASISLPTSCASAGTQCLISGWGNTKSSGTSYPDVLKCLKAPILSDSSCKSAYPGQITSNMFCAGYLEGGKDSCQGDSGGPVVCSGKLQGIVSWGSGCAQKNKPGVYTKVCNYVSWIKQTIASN", "assay": "Trypsin inhibition assay (proteolytic activity on BApNA)", "conditions": "for remaining activity at 0.0001024 µM: Concentration 0.1024 nM; for remaining activity at 0.000512 µM: Concentration 0.512 nM; for remaining activity at 0.00256 µM: Concentration 2.56 nM; for remaining activity at 0.064 µM: Concentration 64 nM; for remaining activity at 0.32 µM: Concentration 320 nM; for remaining activity at 1.6 µM: Concentration 1600 nM; for remaining activity at 8 µM: Concentration 8000 nM; for remaining activity at 40 µM: Concentration 40000 nM; for remaining activity at 200 µM: Concentration 200000 nM; for improvement (of inhibitory effect): compared with 4-aminomethyl benzamidine; for IC50: mean ± SE, three independent measurements, n.d: not detected", "experimental": "The inhibition by the benzamidine derivatives against trypsin was measured using an assay probing the enzyme proteolytic activity on the substrate Nα-Benzoyl-DL-arginine-4-nitroanilide hydrochloride (BApNA). […] 5 µl of BApNA solution (10 mM, dissolved in DMSO) were added immediately prior to the measurement. The final total volume was 100 µl per well. The measurements were performed in a Low Binding 384-well plate. The absorption was measured at 410 nm in intervals of 10 sec for 15 min at 37 °C using a Beckman Coulter’s Paradigm Detection Platform (Brea, USA). The measurements were performed in triplicate. The activity of trypsin was calculated by the hydrolysis rate of BApNA after subtraction of the background-hydrolysis rate. The curves were plotted as a function of the concentration of the inhibitor against the relative enzyme activity. Vmax was derived from the detected absorption signal for each concentration and logistic fitting was performed to obtain IC50 values using Origin 2019b (OriginLab)."}, "MMP-9": {"target": "T2, MMP-9 (Homo sapiens, UniProt P14780)", "T2 construct": "purchased Sino Biological 10327-HNAH", "T2 sequence (P14780 107-707 limits assumed)": "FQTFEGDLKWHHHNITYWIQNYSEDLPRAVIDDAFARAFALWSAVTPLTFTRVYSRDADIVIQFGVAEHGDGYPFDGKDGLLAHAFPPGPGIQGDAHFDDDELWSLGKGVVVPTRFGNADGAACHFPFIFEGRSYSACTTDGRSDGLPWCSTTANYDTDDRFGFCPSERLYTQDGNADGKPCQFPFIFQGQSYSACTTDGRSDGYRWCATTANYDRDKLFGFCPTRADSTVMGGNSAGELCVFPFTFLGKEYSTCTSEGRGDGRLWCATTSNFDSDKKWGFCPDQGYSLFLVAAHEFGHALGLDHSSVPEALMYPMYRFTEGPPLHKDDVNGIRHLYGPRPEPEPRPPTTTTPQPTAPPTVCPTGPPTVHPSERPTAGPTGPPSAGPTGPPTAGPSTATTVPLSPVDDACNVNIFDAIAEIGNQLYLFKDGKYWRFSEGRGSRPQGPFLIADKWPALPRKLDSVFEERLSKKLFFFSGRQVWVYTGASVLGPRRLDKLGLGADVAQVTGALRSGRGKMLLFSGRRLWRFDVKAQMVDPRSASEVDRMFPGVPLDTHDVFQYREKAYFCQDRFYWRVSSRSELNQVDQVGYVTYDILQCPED", "assay": "MMP-9 inhibition assay (fluorogenic peptide substrate)", "design": "remaining enzyme activity (% of control): scale not given here", "conditions": "for remaining enzyme activity (% of control): MMP-9; for IC50: n.d: not detected", "outline": "(§1)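 Hydrolysis of DNP-Pro-Leu-Gly-Met-Trp-Ser-Arg (25 μM final) was tracked kinetically at em 360 nm over 30 min. Enzymes, APMA-activated and at 10 nM (MMP-9) or 6.5 nM (MMP-2) final, sat 30 min at RT with inhibitor in pH 7.5 Tris buffer with CaCl2 and Brij 35 first. Logistic fitting of Vmax against concentration gave IC50, in triplicate.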"}, "MMP-2": {"target": "T3, MMP-2 (Homo sapiens, UniProt P08253)", "T3 construct": "purchased Sino Biological 10082-HNAH", "T3 sequence (P08253 110-660)": "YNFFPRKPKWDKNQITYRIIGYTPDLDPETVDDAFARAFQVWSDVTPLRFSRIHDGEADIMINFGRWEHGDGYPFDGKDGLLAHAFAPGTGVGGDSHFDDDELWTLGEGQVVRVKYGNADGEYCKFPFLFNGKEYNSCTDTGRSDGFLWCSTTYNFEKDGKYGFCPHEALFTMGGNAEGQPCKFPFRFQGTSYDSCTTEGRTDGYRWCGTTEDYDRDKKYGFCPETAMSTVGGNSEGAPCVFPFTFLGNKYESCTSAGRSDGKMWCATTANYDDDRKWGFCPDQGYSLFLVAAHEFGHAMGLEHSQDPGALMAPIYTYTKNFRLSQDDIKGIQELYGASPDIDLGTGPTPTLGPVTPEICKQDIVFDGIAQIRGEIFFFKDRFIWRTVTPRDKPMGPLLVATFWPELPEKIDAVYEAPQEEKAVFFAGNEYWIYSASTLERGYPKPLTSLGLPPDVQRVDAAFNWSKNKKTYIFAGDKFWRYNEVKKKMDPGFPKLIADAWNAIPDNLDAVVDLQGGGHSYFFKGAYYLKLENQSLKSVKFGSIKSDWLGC", "assay": "MMP-2 inhibition assay (fluorogenic peptide substrate)", "conditions": "for remaining activity (%): MMP-2; for IC50: n.d: not detected", "outline": "as §1"}, "[1]": {"conditions": "fraction of uninhibited activity, read-out: mean (Figure 3c, dose-response, relative trypsin activity)"}}, "note": "Read-outs that look alike come from different tables or passages of the source.", "data": [{"smiles": "N=C(N)c1ccc(CNC(=S)Nc2cccc(I)c2)cc1", "note": "[Compound T-0]", "values": [{"measurement": "remaining activity at 0.0001024 µM", "setting": "bovine trypsin; [1]", "result": 101, "unit": "%"}, {"measurement": "remaining activity at 0.000512 µM", "setting": "bovine trypsin; [1]", "result": 110, "unit": "%"}, {"measurement": "remaining activity at 0.00256 µM", "setting": "bovine trypsin; [1]", "result": 107, "unit": "%"}, {"measurement": "remaining activity at 0.064 µM", "setting": "bovine trypsin; [1]", "result": 110, "unit": "%"}, {"measurement": "remaining activity at 0.32 µM", "setting": "bovine trypsin; [1]", "result": 102, "unit": "%"}, {"measurement": "remaining activity at 1.6 µM", "setting": "bovine trypsin; [1]", "result": 97.5, "unit": "%"}, {"measurement": "remaining activity at 8 µM", "setting": "bovine trypsin; [1]", "result": 74, "unit": "%"}, {"measurement": "remaining activity at 40 µM", "setting": "bovine trypsin; [1]", "result": 23.7, "unit": "%"}, {"measurement": "remaining activity at 200 µM", "setting": "bovine trypsin; [1]", "result": 5.61, "unit": "%"}, {"measurement": "remaining activity at 1000 µM", "setting": "bovine trypsin; Concentration 1000000 nM, fraction of uninhibited activity, read-out: mean (Figure 3c, dose-response, relative trypsin activity)", "result": 1.19, "unit": "%"}, {"measurement": "improvement (of inhibitory effect)", "setting": "bovine trypsin", "result": "approximately 9 fold"}, {"measurement": "IC50", "setting": "bovine trypsin", "result": "16.6 ± 3.1", "unit": "µM"}]}, {"smiles": "N=C(N)c1ccc(CNCc2ccc(C(=O)NCCNC(=S)Nc3cccc(I)c3)cc2)cc1", "note": "[Compound T-2]", "values": [{"measurement": "remaining activity at 0.0001024 µM", "setting": "bovine trypsin; [1]", "result": 105, "unit": "%"}, {"measurement": "remaining activity at 0.000512 µM", "setting": "bovine trypsin; [1]", "result": 104, "unit": "%"}, {"measurement": "remaining activity at 0.00256 µM", "setting": "bovine trypsin; [1]", "result": 106, "unit": "%"}, {"measurement": "remaining activity at 0.064 µM", "setting": "bovine trypsin; [1]", "result": 109, "unit": "%"}, {"measurement": "remaining activity at 0.32 µM", "setting": "bovine trypsin; [1]", "result": 97.3, "unit": "%"}, {"measurement": "remaining activity at 1.6 µM", "setting": "bovine trypsin; [1]", "result": 81.2, "unit": "%"}, {"measurement": "remaining activity at 8 µM", "setting": "bovine trypsin; [1]", "result": 37.4, "unit": "%"}, {"measurement": "remaining activity at 40 µM", "setting": "bovine trypsin; [1]", "result": 7.09, "unit": "%"}, {"measurement": "remaining activity at 200 µM", "setting": "bovine trypsin; [1]", "result": 1.08, "unit": "%"}, {"measurement": "remaining activity at 365 µM", "setting": "bovine trypsin; Concentration 365000 nM, fraction of uninhibited activity, read-out: mean (Figure 3c, dose-response, relative trypsin activity)", "result": 0.681, "unit": "%"}, {"measurement": "improvement (of inhibitory effect)", "setting": "bovine trypsin", "result": 70, "unit": "fold"}, {"measurement": "IC50", "setting": "bovine trypsin", "result": "5.2 ± 2.2", "unit": "µM"}]}, {"smiles": "Cn1c(O)nc2cc(C(=O)NCCOCCOCCNC(=O)CNC(=O)NC34CC5CC(CC(C5)C3)C4)cnc21", "note": "[66+826 Linker 10]", "values": [{"measurement": "remaining enzyme activity (% of control)", "setting": "MMP-9; concentration 0.12 µM", "result": 99.87}, {"measurement": "remaining enzyme activity (% of control)", "setting": "MMP-9; concentration 0.49 µM", "result": 98.00}, {"measurement": "remaining enzyme activity (% of control)", "setting": "MMP-9; concentration 1.95 µM", "result": 97.71}, {"measurement": "remaining enzyme activity (% of control)", "setting": "MMP-9; concentration 7.81 µM", "result": 90.00}, {"measurement": "remaining enzyme activity (% of control)", "setting": "MMP-9; concentration 31.25 µM", "result": 87.32}, {"measurement": "remaining enzyme activity (% of control)", "setting": "MMP-9; concentration 125.00 µM", "result": 80.00}, {"measurement": "remaining enzyme activity (% of control)", "setting": "MMP-9; concentration 500.00 µM", "result": 70.00}, {"measurement": "remaining activity (%)", "setting": "MMP-2; concentration 0.12 µM", "result": 101.73}, {"measurement": "remaining activity (%)", "setting": "MMP-2; concentration 0.49 µM", "result": 104.42}, {"measurement": "remaining activity (%)", "setting": "MMP-2; concentration 1.95 µM", "result": 99.57}, {"measurement": "remaining activity (%)", "setting": "MMP-2; concentration 7.81 µM", "result": 96.59}, {"measurement": "remaining activity (%)", "setting": "MMP-2; concentration 31.25 µM", "result": 91.55}, {"measurement": "remaining activity (%)", "setting": "MMP-2; concentration 125.00 µM", "result": 88.04}, {"measurement": "remaining activity (%)", "setting": "MMP-2; concentration 500.00 µM", "result": 85.39}]}, {"smiles": "Cc1cc(=O)[nH]c(-n2nc(C)c(CCC(=O)NCCNC(=O)CSCCNC(=O)c3cncc(O)c3)c2C)n1", "note": "[693+828 Linker 24]", "values": [{"measurement": "remaining enzyme activity (% of control)", "setting": "MMP-9; concentration 0.04 µM", "result": 101.25}, {"measurement": "remaining enzyme activity (% of control)", "setting": "MMP-9; concentration 0.21 µM", "result": 90.43}, {"measurement": "remaining enzyme activity (% of control)", "setting": "MMP-9; concentration 1.04 µM", "result": 102.01}, {"measurement": "remaining enzyme activity (% of control)", "setting": "MMP-9; concentration 5.19 µM", "result": 89.02}, {"measurement": "remaining enzyme activity (% of control)", "setting": "MMP-9; concentration 25.96 µM", "result": 79.56}, {"measurement": "remaining enzyme activity (% of control)", "setting": "MMP-9; concentration 129.80 µM", "result": 32.87}, {"measurement": "remaining enzyme activity (% of control)", "setting": "MMP-9; concentration 649.00 µM", "result": 0.00}, {"measurement": "IC50", "setting": "MMP-9; mean ± SE, Fig. 5e prints no unit, µM, read-out: IC50", "result": "80.5 ± 15.2", "unit": "µM"}, {"measurement": "remaining activity (%)", "setting": "MMP-2; concentration 0.0156 µM", "result": 100.00}, {"measurement": "remaining activity (%)", "setting": "MMP-2; concentration 0.08 µM", "result": 92.98}, {"measurement": "remaining activity (%)", "setting": "MMP-2; concentration 0.39 µM", "result": 98.13}, {"measurement": "remaining activity (%)", "setting": "MMP-2; concentration 1.95 µM", "result": 86.92}, {"measurement": "remaining activity (%)", "setting": "MMP-2; concentration 9.75 µM", "result": 82.64}, {"measurement": "remaining activity (%)", "setting": "MMP-2; concentration 48.76 µM", "result": 53.90}, {"measurement": "remaining activity (%)", "setting": "MMP-2; concentration 243.80 µM", "result": 16.08}, {"measurement": "remaining activity (%)", "setting": "MMP-2; concentration 1219.00 µM", "result": 0.00}, {"measurement": "IC50", "setting": "MMP-2; mean ± SE, Fig. 5d unit inferred, µM, read-out: IC50", "result": "59.9 ± 15.7", "unit": "µM"}]}, {"smiles": "Cc1cc(=O)[nH]c(-n2nc(C)c(CCC(=O)NCCSCC(=O)NCCNC(=O)c3cnc4c(c3)nc(O)n4C)c2C)n1", "note": "[693_826 24]", "values": [{"measurement": "IC50", "setting": "MMP-9; Figure 5d, fragment combination joined by linker, read-out: MMP9 IC50", "result": 358, "unit": "µM"}, {"measurement": "IC50", "setting": "MMP-2; Figure 5d, fragment combination joined by linker, read-out: MMP2 IC50", "result": 417, "unit": "µM"}]}]}
